Test results from US11415493B2, “Detection of cells in a liquid sample” (DELTA INSTRUMENTS B.V., priority 2016, dated 2022).
“Also recorded” adds a separate entry of the source.

Key:
bacteria in raw milk = assay: IBC in raw milk samples at different temperature settings, flow cytometer; format: cell-based
Protocol: The nucleic acid dyes, Evagreen®, SYTOX® Green and Propidium iodide where tested against GelGreen™ (the reference method). […] Nucleic acid dyes Evagreen®, SYTOX® Green and propidium iodide were tested using the same staining and incubation conditions as for the reference method only differing in the type of dye comprised in the staining composition. Evagreen® was used at a concentration of 1.25 μM in the staining composition. SYTOX® Green and Propidium iodide were used at a concentration of 5 μM in the staining composition. Three different types of milk were used: Locally obtained raw bulk tank milk from a farm and dairy plant where collected at a local farmer. This milk is referred to as fresh raw milk and is not older than 24 hours. 24 hour and 48 hour old milk were obtained from a dairy plant. […] For this purpose E. coli was grown overnight (approx. 15 h) in TSB at 32° C. The dead bacterial where obtained by heating the grown E. coli at 110° C. for 10 minutes. […] All the milk samples are kept at 4° C. until analyzed. […] Finally, the samples were analyzed on the flow cytometer and the fluorescent signals from the bacteria were detected and a count per unit volume was determined. […]
From example 5 it is already clear that temperatures lower than the optimal settings result in decreased DNA staining and so bacteria counting performance. […] Milk samples were kept at 4° C. until analyzed. […]

E. coli = assay: Validation of flow cytometer bacterial counts versus Petrifilm CFU counts, E. coli cultures; format: cell-based, Escherichia coli; details: Tris-buffered saline pH 8.5, 50° C.
Protocol: First, an experiment was performed to confirm that bacterial counts obtained on the flow cytometer using GelGreen™ did correlate with traditional plate counts. For this, the Petrifilm method was selected (Standard Methods for Examination of Dairy Products 17th Edition 2004. Edited by H. M. Wehr and J. R. Frank. American Public Health Association, 800 I Street, NW, Washington D.C. 200001. Chapter 6.040), rather than a poured agar plate method, because of ease of use. Escherichia coil (E. coli) cultures were grown at 36° C. in Trypticase Soy Broth (TSB) in a culture tube. A staining composition was prepared as follows: The nucleic acid dye GelGreen™ (from Biotium) was diluted to 1× from the 10,000× commercially available stock, into Tris-buffered saline (100 mM Trizma base, 100 mM Trizma HCl, 150 mM NaCl, pH 8.5), which was preheated to 50° C. […] The stained E. coli was analyzed on the flow cytometer and the FL1 (Bandpass 531 nm (519-551)) and FL2 (Long pass >550 nm) fluorescence channels were used to identify the stained bacteria (FIGS. 1A and 1C). […] Each dilution of E. coli was stained with the GelGreen™ reagent, analyzed on the flow cytometer and counts for each dilution were obtained. […] The Petrifilms were placed in a 30° C. incubator, removed after 48 hrs and the colonies on each Petrifilm were counted using an automated colony counter. […]

E. coli in raw milk = assay: GelGreen raw milk treatment staining protocol, flow cytometry; format: cell-based, Escherichia coli; details: raw milk diluted in Tris-buffered saline pH 8.5, approximately 50 to 60° C.
Protocol: To show how the FL1, FL2 signals look like in un-spiked raw milk, low bacterial count raw milk was analyzed. The locally obtained raw milk (generally from a farm) has a very low bacteria count ranging from 1000 to 50,000 CFU per mL. The staining composition comprising GelGreen™ as the nucleic acid dye was prepared in the same way as in Example 1, except that the protease Savinase® 16L (from Novozymes) was added in an amount of 1.92×10^3 NPU/ml, where NPU is “Novo Protease Unit which is the same as Anson unit (AU). […] The sample with the staining composition was incubated at approximately 50° C. for approximately 4 to 5 min; the sample was again sonicated for approximately 5 seconds and finally the sample was analyzed on the flow cytometer and the fluorescent signals from the bacteria were detected and a count per unit volume was determined.
A small volume of raw milk was processed and analyzed following this GelGreen™ raw milk treatment staining method protocol (FIG. 38). To show the FL1 and FL2 signals for spiked raw milk, a known number of E. coli were placed into a known volume of the same raw milk and kept at 4° C. until treated, stained and analyzed on the flow cytometer. The raw milk with E. coli was processed and analyzed using the same GelGreen™ raw milk treatment staining method protocol. […]

## CN(C)c1ccc2cc3ccc(N(C)C)cc3[n+](CCCCCC(=O)NCCCOCCOCCOCCCNC(=O)CCCCC[n+]3c4cc(N(C)C)ccc4cc4ccc(N(C)C)cc43)c2c1.[I-].[I-] [GelGreen™]
Bacteria in raw milk; 40° C., fresh spiked milk
  IBC compared to the 68° C. based reference method: way too low
Bacteria in raw milk; 90° C., all the samples
  IBC compared to the 68° C. based reference method: slightly higher
E. coli
  relationship of Log flow cytometer bacterial counts versus Log CFU counts from Petrifilm: clear linear relationship
E. coli in raw milk
  staining of bacterial cells in raw milk: clear population of E. coli was identified; also recorded: bacterial cells being stained
